Data reported in US20200361987A1, “DEUTERATED TETRAPEPTIDES THAT TARGET MITOCHONDRIA” (STEALTH BIOTHERAPEUTICS CORP., priority 2017, published 2020).
Several values for one entry are separate records, joined by “and”; a condition that tells them apart may be missing. Equal entries are not always repeated. Square brackets hold non-standard residues; d marks the D form. Peptide text beside a SMILES is read from it. Dmt = Cc1cc(O)cc(C)c1C[C@H](N)C(=O)O

Tests used:
[1] = Rat PK study, intravenous administration, plasma; assay type: in vivo; details: intravenous 1 mg/kg; for AUC(0-inf): read-out: AUCINF_obs; for clearance: read-out: Cl_obs; for Vd: read-out: Vss_obs
Procedure: General Methods and Procedures of Rat PK Studies (Aptuit)
All test formulations will be prepared on the day of administration prior to dosing and used as soon as possible. All test formulations will be stored at room temperature, prior to administration.
The dose formulation(s) will be prepared and administered by volume. The target dose levels are detailed below:
Test substances discrete doses will be formulated in saline water at the final concentration of 0.5 mg/mL and intravenously administered at the volume of 2 mL/kg to rats.
Actual body weights of animals will be recorded on the day of dose administration. Doses volumes will be adjusted taking into account the weight of the animal at the time of dose administration. Doses formulations will be administered intravenously via tail vein (2 mL/kg); an aliquot of each dose formulation will be taken before administration. The actual dose received by each animal will be registered and residual volumes discarded.
After administration, serial blood samples will be collected from the lateral tail vein of each rat, then animals will be sacrificed humanely. Approximately 300 μL of Blood will be collected into EDTA tubes. Then exactly 240 μL of blood will be transferred into a micronic tube containing 10 μL of a solution (30 mg/mL NaF and 239 mg/mL Pefabloc) at each of the following time points post-dose (actual times will be recorded): 0.083, 0.25, 0.5, 1, 2, 4 and 8 hours after dosing. All blood samples will be thoroughly but gently mixed following collection and placed on wet ice. Blood will be centrifuged (3000 g for 10 min at approximately 4° C.) as soon as possible and two 50 μL aliquots of plasma will be transferred into micronic tubes. Residual blood will be discarded.
Plasma samples will be frozen at approximately −80° C. as soon as possible after preparation and stored until analysis.
Plasma samples will be assayed using a method based on protein precipitation with methanol followed by HPLC/MS-MS analysis with an optimized analytical method. Calibration standards (CS) and Quality control samples (QC) will be prepared on the day of analysis. Study samples, CS, QC and blanks will be spiked with an internal standard (IS) to improve the precision of the assay. Study samples will be analyzed together with CS, QC and blank samples (including also double blanks). From the calibration curve, the linear range of the analytical method will be determined and lower and upper limits of quantitation specified. Details of the conditions and methods used will be included in the report. All dosing solutions will be checked for accuracy and actual concentration will be reported.
The results for test substances in plasma will be subject to non-compartmental pharmacokinetic analysis using Phoenix WinNonlin 6.3 (see Section 8). The following parameters will be reported:
Calculated concentration of test item in the corresponding formulation (expressed as mg/mL). Dose levels (expressed as mg/kg). Actual collection times (expressed as hh:mm). Plasma concentrations (expressed as ng/mL). Quantitative information about 2 metabolites in Plasma. PK parameters (iv: Cmax, AUClast, AUCinf, CL, Vss, t1/2, if applicable; Abnormal clinical signs and relevant findings, if any.

[2] = test system: CL:DOPC 1:3 liposomes (cardiolipin); test: Isothermal titration calorimetry (ITC) of test compound into CL:DOPC liposomes; assay type: binding; details: 20 mM HEPES pH 7.4
Procedure: Example 18: Isothermal Titration Calorimetry (ITC) Study
1. Preparation of CL:DOPC 1:3 Liposomes (CL Concentration 0.1 mM)
146 μl of cardiolipin solution (5.1 mg/mL in EtOH, Sigma-Aldrich, C1649-10MG) were mixed with 1.2 mg 0.05 mg (exact weight, see Table 1) of DOPC (Avanti Polar Lipids, 850375P) and 20 mM HEPES buffer pH=7.4. Resulting solution was diluted up to 5 mL with the same buffer, vortexed for 2 min and sonicated in bath sonicator for 30 min at room temperature. Liposomes were produced by manual extrusion (Avestin, The LiposoFast-Stabilizer with a LiposoFast-Basic) through a 100 nm filter (Avestin, PC membranes 0.1 m or Avanti Polar Lipids, PC membranes 0.1 μm, 610005). Extrusion was performed for 21 times. EtOH concentration in sample is 2.9%. Obtained CL:DOPC solutions were tested for homogeneity by DLS (Malvern Instruments Ltd, Zetasizer Nano ZSP, instrument with Malvern Instruments Ltd software 7.11) using the following parameters—medium: water; refractive index: 1.33; viscosity: 0.8872 cP; temperature: 25° C.; nanoparticles: liposomes; refractive index of materials: 1.60; detection angle of 173°, a wavelength of 633 nm. All measurements were performed in triplicate.
2. Preparation of Test Compound Solutions
2 mg or 14 mg (exact weight, see Table 1) of test compound were dissolved in 20 mM HEPES buffer (pH=7.4, contains 2,9% (V/V) of EtOH) to obtain 0.7 mM concentration (for exact volumes see Table 3). Obtained solution was vortexed for 2 min.
3. ITC Titration Experiments
Instrument cell was washed and purged with ≈100 μL of CL:DOPC liposomes solution. After washing cell was filled with CL:DOPC liposomes solution. Injection syringe was loaded with test compound solution. Injection volumes were set to values shown in Table 2 and DP values were set to 2.5 μcal/sec in all experiments. Time between injections—105 seconds. Titration of each compound is performed in triplicate, results are reported as mean value±standard deviation (see Table 4).

Structure (SMILES)	AUC(0-t) [1] [µg·h/mL]	Cmax [1] [µg/mL]	Tmax [1] [min]	half-life [1] [min]	AUC(0-inf) [1] [µg·h/mL]	clearance [1] [L/h/kg]	Vd [1] [L/kg]	Ka ([2]; Average of replicates) [M⁻¹]	Kd ([2]; Average of replicates) [µM]	Ka ([2]; single replicate titration)	Kd ([2]; single replicate titration)
[2H]C([2H])(CN)C([2H])([2H])C[C@H](NC(=O)[C@H](Cc1c(C)cc(O)cc1C)NC(=O)[C@H](N)CCCNC(=N)N)C(=O)N[C@@H](Cc1ccccc1)C(N)=O [Example 11, D-Arg-DMT-(4,4,5,5-d4)-Lys-Phe-NH2]	2.92	4.68	4.98	35.3	2.94	0.342	0.23	–	–	–	–
N=C(N)NCCC[C@@H](NC(=O)[C@@H](N)Cc1ccccc1)C(=O)N[C@@H](Cc1ccccc1)C(=O)N[C@@H](CCCCN)C(N)=O [Example 1 non-deuterated, Phe-D-Arg-Phe-Lys-NH2, reference compound] (H-F[dR]FK-NH2)	1.95	3.2	4.98	30	1.96	0.513	0.27	194000	5.39	230000 M⁻¹ and 141000 M⁻¹ and 211000 M⁻¹	4.35 µM and 7.09 µM and 4.74 µM
Cc1cc(O)cc(C)c1C[C@H](NC(=O)[C@H](N)CCCNC(=N)N)C(=O)N[C@@H](CCCCN)C(=O)N[C@@H](Cc1ccccc1)C(N)=O [Example 11 non-deuterated] (H-[dR][Dmt]KF-NH2)	2.12	2.93	4.98	48	2.12	0.478	0.29	–	–	–	–
[2H]C([2H])(N)C([2H])([2H])C([2H])([2H])C([2H])([2H])[C@H](NC(=O)[C@H](Cc1ccccc1)NC(=O)[C@@H](CCCNC(=N)N)NC(=O)[C@@H](N)Cc1ccccc1)C(N)=O [Example 1, Phe-D-Arg-Phe-(3,3,4,4,5,5,6,6-octadeuterium)-Lys-NH2]	2.3	4.3	4.98	27	2.31	0.434	0.21	389000	2.62	473000 M⁻¹ and 384000 M⁻¹ and 366000 M⁻¹ and 331000 M⁻¹	2.11 µM and 2.6 µM and 2.73 µM and 3.02 µM
